The source made the active and inactive calls.
Legend:
[1] = Luminescence Cell-Based Dose Retest to Confirm Inhibitors of Cancer Stem Cells. [Related pubchem assays (depositor defined):AID2717, AID2721]; assay type: functional; conditions: Homo sapiens
[2] = HEp-2 cell cytotoxicity, dose response, cytotoxicity control for RSV inhibitor project, HTS (AID 2410); assay type: functional; conditions: human respiratory syncytial virus
Cytochrome P450 2C9 = Cytochrome P450 2C9 (Homo sapiens, UniProt P11712)
Cytochrome P450 2C9, sequence (P11712 whole entry): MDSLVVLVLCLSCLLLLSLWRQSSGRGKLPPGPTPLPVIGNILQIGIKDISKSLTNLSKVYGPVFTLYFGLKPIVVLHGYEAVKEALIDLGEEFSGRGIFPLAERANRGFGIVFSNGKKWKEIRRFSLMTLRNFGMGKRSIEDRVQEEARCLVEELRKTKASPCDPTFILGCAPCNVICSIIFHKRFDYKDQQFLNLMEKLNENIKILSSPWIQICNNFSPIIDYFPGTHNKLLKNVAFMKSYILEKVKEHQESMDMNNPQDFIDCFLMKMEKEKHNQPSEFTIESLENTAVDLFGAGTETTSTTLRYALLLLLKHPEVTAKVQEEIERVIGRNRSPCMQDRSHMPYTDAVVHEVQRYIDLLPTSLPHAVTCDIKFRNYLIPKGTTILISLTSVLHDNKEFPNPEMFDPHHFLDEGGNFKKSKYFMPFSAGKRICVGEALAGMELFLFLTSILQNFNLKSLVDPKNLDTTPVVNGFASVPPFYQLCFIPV

[3] = target: T1, Corticotropin-releasing factor receptor 2/Corticotropin-releasing factor-binding protein (Homo sapiens, UniProt P24387+Q13324); test: Dose Response confirmation of uHTS hits for small molecule antagonists of the CRF-binding protein and CRF-R2 receptor complex.; assay type: functional; conditions: read-out: IC50_Mean
T1 sequence (Q13324 whole entry): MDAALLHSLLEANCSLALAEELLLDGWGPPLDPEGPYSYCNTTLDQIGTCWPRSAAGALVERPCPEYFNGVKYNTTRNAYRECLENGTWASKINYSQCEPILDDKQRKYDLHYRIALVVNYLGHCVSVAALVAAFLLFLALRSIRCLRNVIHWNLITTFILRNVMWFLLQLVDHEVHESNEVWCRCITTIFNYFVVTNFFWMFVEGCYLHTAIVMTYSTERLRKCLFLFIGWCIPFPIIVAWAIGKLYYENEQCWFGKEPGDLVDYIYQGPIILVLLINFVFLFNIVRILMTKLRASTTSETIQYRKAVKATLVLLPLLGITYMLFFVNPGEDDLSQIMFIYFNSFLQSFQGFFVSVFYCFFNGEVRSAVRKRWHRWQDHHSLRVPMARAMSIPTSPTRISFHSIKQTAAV
T1 sequence (P24387 whole entry): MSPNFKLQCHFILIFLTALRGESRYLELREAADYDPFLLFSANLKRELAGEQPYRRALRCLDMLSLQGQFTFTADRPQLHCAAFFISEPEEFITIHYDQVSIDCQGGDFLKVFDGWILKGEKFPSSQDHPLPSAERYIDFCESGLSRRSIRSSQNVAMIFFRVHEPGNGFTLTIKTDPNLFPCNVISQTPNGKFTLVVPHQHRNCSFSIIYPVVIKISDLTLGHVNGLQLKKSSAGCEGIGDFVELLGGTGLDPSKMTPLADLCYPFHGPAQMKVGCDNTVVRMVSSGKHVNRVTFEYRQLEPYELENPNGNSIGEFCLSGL

[4] = target: T1, Corticotropin-releasing factor receptor 2/Corticotropin-releasing factor-binding protein; test: activators of CRF receptor 2 with binding protein – uHTS hits, confirmation (AID 602473); assay type: functional; conditions: read-out: EC50_Mean
[5] = target: T2, Zinc finger protein mex-5 (Caenorhabditis elegans, UniProt Q9XUB2); test: MEX-5/TCR-2 RNA interaction inhibitors, dose response, biochemical, C. elegans, fluorescence polarization (AID 1960)
T2 sequence (Q9XUB2 whole entry): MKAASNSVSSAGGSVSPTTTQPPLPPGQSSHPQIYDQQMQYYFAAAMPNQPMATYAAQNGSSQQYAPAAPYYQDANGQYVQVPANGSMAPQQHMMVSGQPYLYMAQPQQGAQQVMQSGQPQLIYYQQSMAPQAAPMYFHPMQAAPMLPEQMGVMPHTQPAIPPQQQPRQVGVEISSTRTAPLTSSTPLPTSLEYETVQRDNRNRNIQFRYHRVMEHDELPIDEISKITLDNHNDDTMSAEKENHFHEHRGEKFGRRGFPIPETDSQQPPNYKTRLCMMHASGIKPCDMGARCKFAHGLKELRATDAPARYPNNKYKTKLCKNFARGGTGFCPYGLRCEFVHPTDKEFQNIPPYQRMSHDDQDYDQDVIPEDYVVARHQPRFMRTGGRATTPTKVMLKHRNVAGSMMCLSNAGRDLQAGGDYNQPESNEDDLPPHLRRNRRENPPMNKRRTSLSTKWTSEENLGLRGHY

[6] = target: T3, RNA-binding protein pos-1 (Caenorhabditis elegans, UniProt G5EF15); test: inhibitors of POS-1/mex-3 RNA binding, dose response, biochemical, fluorescence polarization (AID 1964);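 note: purified POS-1 fused to maltose binding protein made in E. coli; potency of compounds blocking POS-1 binding to fluorescent RNA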
T3 sequence (G5EF15 whole entry): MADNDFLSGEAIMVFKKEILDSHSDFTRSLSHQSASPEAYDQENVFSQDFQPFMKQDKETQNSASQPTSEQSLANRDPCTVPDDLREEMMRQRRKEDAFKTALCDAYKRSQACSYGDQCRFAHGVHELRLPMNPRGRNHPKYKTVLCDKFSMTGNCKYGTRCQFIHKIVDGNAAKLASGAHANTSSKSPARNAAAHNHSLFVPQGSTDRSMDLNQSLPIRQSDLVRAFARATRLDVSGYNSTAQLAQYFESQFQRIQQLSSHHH

[7] = inhibitors of intracellular T. cruzi replication, confirmation, NIH3T3 host cells, beta-gal luminescence (AID 2044); assay type: functional, cell-based;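 note: intracellular parasites grown in NIH/3T3 mouse fibroblasts as host cells; luminescent beta-galactosidase reporter signal from transgenic T. cruzi replicating inside host cells; inhibitors lower the luminescence signal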
cells [8] = assay type: functional, cell-based
[9] = cytotoxicity toward NIH3T3 fibroblasts, dose response, counter-screen, cell-based, ATP luminescence, mouse fibroblasts (AID 2010); assay type: functional;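 note: cells exposed to compound for about 90 hours before reading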
cells [10] = assay type: functional, cell-based; remark: listed apart in the source
INS1 = test: beta cell apoptosis inhibitors, cytokine rescue, dose response, luminescence, retest (AID 449756); assay type: functional, cell-based; conditions: Rattus norvegicus, INS1;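 note: cell death triggered by IL-1 beta plus TNF-alpha plus IFN-gamma mixture; protective hits raise ATP signal compared with cytokine alone wells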
Cytochrome P450 1A2 = target: T4, Cytochrome P450 1A2 (Homo sapiens, UniProt P05177);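 note: PubChem cytochrome P450 panel assay, CYP1A2 panel member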
T4 sequence (P05177 whole entry): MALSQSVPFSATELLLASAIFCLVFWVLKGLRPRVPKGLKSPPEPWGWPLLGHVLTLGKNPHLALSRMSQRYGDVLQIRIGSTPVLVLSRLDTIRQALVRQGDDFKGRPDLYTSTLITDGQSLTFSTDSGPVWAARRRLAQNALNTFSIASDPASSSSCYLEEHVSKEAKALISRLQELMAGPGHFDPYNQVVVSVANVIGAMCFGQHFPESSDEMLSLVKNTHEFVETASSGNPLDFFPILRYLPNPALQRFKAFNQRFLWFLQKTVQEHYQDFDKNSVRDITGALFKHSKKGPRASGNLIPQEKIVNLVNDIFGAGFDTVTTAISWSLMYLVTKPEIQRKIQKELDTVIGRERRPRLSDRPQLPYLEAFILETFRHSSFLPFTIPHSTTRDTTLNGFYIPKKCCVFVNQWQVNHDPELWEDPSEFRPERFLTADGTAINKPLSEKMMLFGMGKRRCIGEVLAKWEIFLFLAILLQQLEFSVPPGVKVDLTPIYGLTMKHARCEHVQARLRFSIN

Cytochrome P450 3A4 = Cytochrome P450 3A4 (Homo sapiens, UniProt P08684);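 note: CYP3A4 tested as one member of a cytochrome P450 panel screen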
Cytochrome P450 3A4, sequence (P08684 whole entry): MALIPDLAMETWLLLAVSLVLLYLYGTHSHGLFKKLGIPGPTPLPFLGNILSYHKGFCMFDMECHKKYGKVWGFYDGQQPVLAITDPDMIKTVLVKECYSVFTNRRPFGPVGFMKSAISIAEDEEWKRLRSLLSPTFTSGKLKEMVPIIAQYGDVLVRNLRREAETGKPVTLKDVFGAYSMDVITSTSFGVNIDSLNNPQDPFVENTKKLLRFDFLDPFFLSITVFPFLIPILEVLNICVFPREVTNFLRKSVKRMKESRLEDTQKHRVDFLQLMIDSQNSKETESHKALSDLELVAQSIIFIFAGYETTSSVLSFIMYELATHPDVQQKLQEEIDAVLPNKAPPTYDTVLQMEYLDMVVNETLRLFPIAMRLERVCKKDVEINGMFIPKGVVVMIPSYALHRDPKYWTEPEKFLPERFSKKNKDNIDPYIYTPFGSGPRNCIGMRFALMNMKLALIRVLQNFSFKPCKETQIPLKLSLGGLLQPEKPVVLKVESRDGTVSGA

Streptococcus = test: Group A Streptococcus viability loss, dose response, counter-screen for streptokinase expression inhibitor project, luminescence, BacTiterGlo (AID 1915); assay type: functional, organism-based;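 note: potency for reduction of bacterial viability or growth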
Streptokinase A = target: T5, Streptokinase A (Streptococcus pyogenes serotype M1, UniProt P10520); test: S. pyogenes streptokinase expression inhibitors, potency, dose response, plasminogen activation absorbance, OD405 (AID 1914); assay type: functional, Streptococcus pyogenes M1 GAS;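 note: secreted streptokinase activity via plasminogen activation per viability signal from cell pellet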
T5 sequence (P10520 whole entry): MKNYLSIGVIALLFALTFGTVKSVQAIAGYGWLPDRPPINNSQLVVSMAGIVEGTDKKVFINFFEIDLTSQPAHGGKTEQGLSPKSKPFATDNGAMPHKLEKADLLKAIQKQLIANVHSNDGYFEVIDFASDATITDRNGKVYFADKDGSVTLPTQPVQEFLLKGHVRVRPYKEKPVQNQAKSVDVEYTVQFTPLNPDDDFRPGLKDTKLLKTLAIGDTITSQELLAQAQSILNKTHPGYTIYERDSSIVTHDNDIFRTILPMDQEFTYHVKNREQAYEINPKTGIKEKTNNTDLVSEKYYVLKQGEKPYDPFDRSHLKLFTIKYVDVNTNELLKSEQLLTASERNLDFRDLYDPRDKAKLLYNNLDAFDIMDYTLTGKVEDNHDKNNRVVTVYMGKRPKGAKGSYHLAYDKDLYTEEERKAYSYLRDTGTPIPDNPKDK

[11] = tested on: Streptococcus sp. 'group A'; test: growth inhibition of control SK(-) GAS strain, dose response, counter-screen for streptokinase expression inhibitor project, luminescence, kanamycin, BacTiterGlo, confirmation (AID 1900); assay type: functional, organism-based
[12] = HepG2 cell cytotoxicity, dose response, cytotoxicity control for Shn3 inhibitor project, CellTiter-Glo, cherry-picked (AID 624134); assay type: functional, cell-based
[13] = Shn3 3'UTR reporter inhibitors, dose response, cell-based, Clone20 osteoblasts, firefly luciferase, cherry-picked (AID 624132); assay type: functional;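 note: firefly luciferase luminescence from reporter carrying the Shn3 3'UTR in osteoblasts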
Cytochrome P450 2C19 = Cytochrome P450 2C19 (Homo sapiens, UniProt P33261); test: Cytochrome panel assay with activity outcomes. Panel member name: p450-cyp2c19 Compounds with AC50 equal or less than 10 uM are considered active; assay type: functional
Cytochrome P450 2C19, sequence (P33261 whole entry): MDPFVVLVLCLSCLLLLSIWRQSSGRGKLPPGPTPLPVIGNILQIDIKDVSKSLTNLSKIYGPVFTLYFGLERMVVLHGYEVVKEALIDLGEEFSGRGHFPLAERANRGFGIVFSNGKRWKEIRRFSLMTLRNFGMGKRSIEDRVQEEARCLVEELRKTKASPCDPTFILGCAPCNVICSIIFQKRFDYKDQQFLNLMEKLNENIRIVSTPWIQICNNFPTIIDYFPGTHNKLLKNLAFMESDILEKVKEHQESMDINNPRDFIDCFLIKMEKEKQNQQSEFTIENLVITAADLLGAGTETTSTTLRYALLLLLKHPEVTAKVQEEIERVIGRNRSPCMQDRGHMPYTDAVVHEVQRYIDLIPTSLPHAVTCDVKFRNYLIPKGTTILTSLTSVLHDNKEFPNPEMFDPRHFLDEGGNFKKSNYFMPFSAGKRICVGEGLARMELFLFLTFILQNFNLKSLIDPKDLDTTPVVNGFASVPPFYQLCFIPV

## COc1ccc(C(=O)Nc2ccc(Nc3ccccc3)cc2)cc1[N+](=O)[O-]
[1]
  AC50: 2.69 µM (active)
[2]
  CC50: 12.2 µM (active)

## Cc1ccccc1C(=O)NNC(=O)c1ccc(F)cc1
Cytochrome P450 2C9
  AC50: inconclusive

## O=C(Nc1ccc(N2CCN(c3ccccc3)CC2)c(F)c1)C1CC1
[3]
  IC50: > 47.1 µM (inactive)
[4]
  EC50: > 53 µM (inactive)

## CN(C)c1cc(-c2ccc([N+](=O)[O-])cc2)oc(=O)c1Cl
[5]
  EC50: 165 µM (inconclusive)
[6]
  EC50: 49.5 µM (active)

## CN1C(=O)C(=CNc2ccc(N3CCOCC3)cc2)C(=O)N(C)C1=S
[5]
  EC50: > 300 µM (inconclusive)
[6]
  EC50: > 300 µM (not active)

## Cc1ccc(C)n1CCN1CCN(CC(=O)Nc2cc(C(F)(F)F)ccc2Cl)CC1
Cytochrome P450 2C9
  AC50: inconclusive

## COc1ccc(C)cc1NC(=O)N1CCCc2ccccc21
[3]
  IC50: > 47.1 µM (inactive)
[4]
  EC50: > 53 µM (inactive)

## Cc1ccc2nc(-c3ccccn3)c(Nc3ccccc3C)n2c1
[7]
  EC50: 1.74 µM (active)
[1]
  AC50: 5.42 µM (active)
Cells [8]
  EC50: 18.6 µM (active)
[9]
  EC50: 5.84 µM (active)
Cells [10]
  EC50: > 350 µM (not active)
INS1
  AC50: 6.06 µM (active)

## CCCn1nc(C(=O)Nc2ccc(S(=O)(=O)Nc3nccs3)cc2)c2ccccc2c1=O
[5]
  EC50: 27.8 µM (active)
[6]
  EC50: > 150 µM (not active)

## CC(C)(C)c1ccc(Oc2ccc(N)cc2)cc1
[1]
  AC50: 1.85 µM (active)

## CCOc1ccc(Cc2nc(C)c(CC(=O)N3CCOCC3)c(O)n2)cc1
Cytochrome P450 2C9
  AC50: inconclusive

## Cc1cc(C)cc(C(=O)Nc2cccnc2Cl)c1
[3]
  IC50: > 47.1 µM (inactive)
[4]
  EC50: > 53 µM (inactive)

## CC(=O)NCCNc1ncncc1-c1ccccc1C
Cytochrome P450 2C9
  AC50: inconclusive
Cytochrome P450 1A2
  AC50: 25.1 µM (inconclusive)

## COC(=O)C1=COC(C)C2CN3CCc4c([nH]c5cc(OC)c(OC)cc45)C3CC12 (stereo unspecified)
[5]
  EC50: 14.4 µM (active)
[6]
  EC50: 15.5 µM (active)

## Cc1cccc(N=C(S)NCC(C)CSc2ccc(Cl)cc2)c1 (stereo unspecified)
[1]
  AC50: 5.75 µM (active)

## COc1ccc(CCN2C(=O)NC(=O)/C(=C\NNC(=O)c3ccncc3)C2=O)cc1OC
[5]
  EC50: 43.7 µM (active)

## O=S(=O)(NCc1cc(-c2ccccc2Cl)no1)c1ccc(Cl)cc1
Cytochrome P450 2C9
  AC50: inconclusive
Cytochrome P450 3A4
  AC50: 20 µM (inconclusive)

## O=S(=O)(Nc1ccc(-n2cccc2)cc1)c1ccc(Cl)c(Cl)c1
Streptococcus
  EC50: 7.58 µM (active)
[1]
  AC50: 4.84 µM (active)
Streptokinase A
  EC50: 11.3 µM (inconclusive)
[11]
  EC50: 7.42 µM (active)

## CCC(C)[C@H](NC(=O)N1CCn2c1nc1ccccc12)C(=O)NCc1ccc(OC)cc1 (stereo partly specified)
[3]
  IC50: > 47.1 µM (inactive)
[4]
  EC50: > 53 µM (inactive)

## CCCCNC(=S)NNC(=O)c1cc(C)on1
[5]
  EC50: > 300 µM (not active)
[6]
  EC50: > 300 µM (not active)

## COc1cc(Nc2nc(-c3ccccc3)c3cc(C)ccc3n2)cc(OC)c1OC
[1]
  AC50: 5.05 µM (active)
[12]
  AC50: 60.2 µM (active)
[13]
  AC50: 6.55 µM (active)

## COCc1ccc(CN2CCC(C(=O)Nc3cccc(-c4cscn4)c3)CC2)o1
[3]
  IC50: > 47.1 µM (inactive)
[4]
  EC50: > 53 µM (inactive)

## O=C(NCC1COc2ccccc2O1)C1CCN(S(=O)(=O)c2cccc3nsnc23)CC1 (stereo unspecified)
Cytochrome P450 2C9
  AC50: inconclusive

## N#Cc1cc(N)ccc1Sc1ccc(Cl)cc1
Cytochrome P450 2C9
  AC50: inconclusive

## CC(C)(c1ccccc1)c1ccc(OCCN2CCCC2)cc1
[1]
  AC50: 0.824 µM (active)

## Cc1cc(C)c(NC(=O)c2ccc(CNS(=O)(=O)c3cc(C(F)(F)F)ccc3Cl)cc2)c(C)c1
[3]
  IC50: > 47.1 µM (inactive)
[4]
  EC50: > 53 µM (inactive)

## Cc1cc(NC(=O)c2ccc(S(=O)(=O)N(C)C)cc2)n(-c2ccccn2)n1
Cytochrome P450 2C9
  AC50: inconclusive

## O=[N+]([O-])c1cc(/C=N\O)ccc1Oc1ccc(F)cc1
[3]
  IC50: 24.9 µM (active)
[4]
  EC50: > 53 µM (inactive)

## COC(=O)N/N=C(\C)c1cccs1
[3]
  IC50: > 47.1 µM (inactive)
[4]
  EC50: > 53 µM (inactive)

## O=P(/C(=N/O)N1CCOCC1)(N1CCOCC1)N1CCOCC1
[3]
  IC50: > 47.1 µM (inactive)
[4]
  EC50: > 53 µM (inactive)

## N#Cc1c(-c2ccccc2Cl)c2c([nH]c1=O)-c1ccccc1OC2
[5]
  EC50: 38.8 µM (active)
[6]
  EC50: > 300 µM (inconclusive)

## Cn1cc(C(=O)C(=O)N[C@H]2CN3CCC2CC3)c2ccccc21
Cytochrome P450 2C9
  AC50: inconclusive

## Cc1nn(-c2ccccc2)c(C)c1/C=N/NC(=O)c1cc(-c2ccc(Br)s2)[nH]n1
Streptococcus
  EC50: 11.8 µM (active)
[1]
  AC50: 0.434 µM (active)
Streptokinase A
  EC50: > 150 µM (not active)
[11]
  EC50: 7.15 µM (active)

## Cc1c(C)c2c(c(C)c1O)CC[C@@](C)(CCC[C@@H](C)CCC[C@@H](C)CCCC(C)C)O2
Cytochrome P450 2C19
  AC50: inconclusive
Cytochrome P450 2C9
  AC50: inconclusive
